Tested on: 362531-283-R-J2-PDC complex spheroid viability
Experiment: Anticancer human tumor 362531-283-R-J2-PDC patient-derived colon adenocarcinoma cell line growth inhibition [RAS]
Conditions: for IC50: curve of first compound; for viability, T/C: stronger effect = lower value; active = viability on the fitted dose curve at most 10% of control; inactive = the rest
Outline: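 Multi-cell-type spheroids: tumor cells plus HUVEC endothelial cells and mesenchymal stem cells. RAS-pathway inhibitors were combined with targeted agents, each dosed in half-log steps down from clinical Cmax, or from 10 microM when Cmax was unknown.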

[1] = second compound 0.00316 µM, first compound 0.0316 µM
[2] = second compound 0.00316 µM, first compound 0.1 µM
[3] = second compound 0.00316 µM, first compound 0.316 µM
[4] = second compound 0.00316 µM, first compound 1 µM
[5] = second compound 0.00316 µM, first compound 3.16 µM
[6] = second compound 0.00316 µM, first compound 10 µM
[7] = second compound 0.01 µM, first compound 0.0316 µM
[8] = second compound 0.01 µM, first compound 0.1 µM
[9] = second compound 0.01 µM, first compound 0.316 µM
[10] = second compound 0.01 µM, first compound 1 µM
[11] = second compound 0.01 µM, first compound 3.16 µM
[12] = second compound 0.01 µM, first compound 10 µM
[13] = second compound 0.0316 µM, first compound 0.0316 µM
[14] = second compound 0.0316 µM, first compound 0.1 µM
[15] = second compound 0.0316 µM, first compound 0.316 µM
[16] = second compound 0.0316 µM, first compound 1 µM
[17] = second compound 0.0316 µM, first compound 3.16 µM
[18] = second compound 0.0316 µM, first compound 10 µM
[19] = second compound 0.1 µM, first compound 0.0316 µM
[20] = second compound 0.1 µM, first compound 0.1 µM
[21] = second compound 0.1 µM, first compound 0.316 µM
[22] = second compound 0.1 µM, first compound 1 µM
[23] = second compound 0.1 µM, first compound 3.16 µM
[24] = second compound 0.1 µM, first compound 10 µM
[25] = second compound 0.316 µM, first compound 0.0316 µM
[26] = second compound 0.316 µM, first compound 0.1 µM
[27] = second compound 0.316 µM, first compound 0.316 µM
[28] = second compound 0.316 µM, first compound 1 µM
[29] = second compound 0.316 µM, first compound 3.16 µM
[30] = second compound 0.316 µM, first compound 10 µM
[31] = second compound 1 µM, first compound 0.0316 µM
[32] = second compound 1 µM, first compound 0.1 µM
[33] = second compound 1 µM, first compound 0.316 µM
[34] = second compound 1 µM, first compound 1 µM
[35] = second compound 1 µM, first compound 3.16 µM
[36] = second compound 1 µM, first compound 10 µM
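Note: spheroids exposed to the agents for 7 days before readout.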
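Throughout, for viability, T/C: luminescence viability as percent of DMSO vehicle control wells.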

CC1(O)CCCC1n1c(=O)c(C(F)F)cc2cnc(NC3CCN(S(C)(=O)=O)CC3)nc21 (stereo unspecified) + C=CC(=O)N1CCN(c2nc(OCC3CCCN3C)nc3c(F)c(-c4nc(N)cc(C)c4C(F)(F)F)c(Cl)cc23)C(C)C1
> 10 µM: IC50 (second compound 0.00316 µM) | IC50 (second compound 0.01 µM) | IC50 (second compound 0.0316 µM) | IC50 (second compound 0.1 µM) | IC50 (second compound 0.316 µM) | IC50 (second compound 1 µM)
inactive: viability, T/C [1] 97.6% | viability, T/C [2] 98% | viability, T/C [3] 77.6% | viability, T/C [4] 68.3% | viability, T/C [5] 64.8% | viability, T/C [6] 101% | viability, T/C [7] 101% | viability, T/C [8] 97.1% | viability, T/C [9] 83.1% | viability, T/C [10] 75.5% | viability, T/C [11] 68.6% | viability, T/C [12] 65.7% | viability, T/C [13] 102% | viability, T/C [14] 93.2% | viability, T/C [15] 82.8% | viability, T/C [16] 76.1% | viability, T/C [17] 60% | viability, T/C [18] 95.2% | viability, T/C [19] 91.5% | viability, T/C [20] 95% | viability, T/C [21] 93.5% | viability, T/C [22] 75.2% | viability, T/C [23] 54.1% | viability, T/C [24] 89.7% | viability, T/C [25] 97.2% | viability, T/C [26] 92.5% | viability, T/C [27] 89.2% | viability, T/C [28] 70.2% | viability, T/C [29] 64.4% | viability, T/C [30] 69.1% | viability, T/C [31] 98.6% | viability, T/C [32] 104% | viability, T/C [33] 89.9% | viability, T/C [34] 77.4% | viability, T/C [35] 70.8% | viability, T/C [36] 53%

CCN1CCN(Cc2ccc(Nc3ncc(F)c(-c4cc(F)c5nc(C)n(C(C)C)c5c4)n3)nc2)CC1 + C=CC(=O)N1CCN(c2nc(OCC3CCCN3C)nc3c(F)c(-c4nc(N)cc(C)c4C(F)(F)F)c(Cl)cc23)C(C)C1
inactive: viability, T/C (second compound 0.00316 µM, first compound 0.00316 µM) 108% | viability, T/C (second compound 0.00316 µM, first compound 0.01 µM) 99.2% | viability, T/C [1] 106% | viability, T/C [2] 76% | viability, T/C [3] 66.9% | viability, T/C [4] 80.2% | viability, T/C (second compound 0.01 µM, first compound 0.00316 µM) 93.5% | viability, T/C (second compound 0.01 µM, first compound 0.01 µM) 101% | viability, T/C [7] 88.2% | viability, T/C [8] 78.3% | viability, T/C [9] 66.7% | viability, T/C [10] 71.4% | viability, T/C (second compound 0.0316 µM, first compound 0.00316 µM) 99.1% | viability, T/C (second compound 0.0316 µM, first compound 0.01 µM) 94.3% | viability, T/C [13] 96.7% | viability, T/C [14] 68.3% | viability, T/C [15] 66.9% | viability, T/C [16] 100% | viability, T/C (second compound 0.1 µM, first compound 0.00316 µM) 102% | viability, T/C (second compound 0.1 µM, first compound 0.01 µM) 108% | viability, T/C [19] 98.8% | viability, T/C [20] 70% | viability, T/C [21] 73.3% | viability, T/C [22] 82.5% | viability, T/C (second compound 0.316 µM, first compound 0.00316 µM) 114% | viability, T/C (second compound 0.316 µM, first compound 0.01 µM) 94.8% | viability, T/C [25] 101% | viability, T/C [26] 73% | viability, T/C [27] 77.9% | viability, T/C [28] 81.1% | viability, T/C (second compound 1 µM, first compound 0.00316 µM) 102% | viability, T/C (second compound 1 µM, first compound 0.01 µM) 108% | viability, T/C [31] 94.6% | viability, T/C [32] 70.8% | viability, T/C [33] 69.9% | viability, T/C [34] 72.9%
> 1 µM: IC50 (second compound 0.00316 µM) | IC50 (second compound 0.01 µM) | IC50 (second compound 0.0316 µM) | IC50 (second compound 0.1 µM) | IC50 (second compound 0.316 µM) | IC50 (second compound 1 µM)

C[C@@H](NC(=O)c1ncnc(N)c1Cl)c1ncc(C(=O)Nc2cc(C(F)(F)F)c(Cl)cn2)s1 + C=CC(=O)N1CCN(c2nc(OCC3CCCN3C)nc3c(F)c(-c4nc(N)cc(C)c4C(F)(F)F)c(Cl)cc23)C(C)C1
> 10 µM: IC50 (second compound 0.00316 µM) | IC50 (second compound 0.01 µM) | IC50 (second compound 0.0316 µM) | IC50 (second compound 0.1 µM) | IC50 (second compound 0.316 µM) | IC50 (second compound 1 µM)
inactive: viability, T/C [1] 102% | viability, T/C [2] 109% | viability, T/C [3] 115% | viability, T/C [4] 99.1% | viability, T/C [5] 84.9% | viability, T/C [6] 63.8% | viability, T/C [7] 103% | viability, T/C [8] 95% | viability, T/C [9] 93.1% | viability, T/C [10] 97.6% | viability, T/C [11] 87.3% | viability, T/C [12] 67.4% | viability, T/C [13] 107% | viability, T/C [14] 99.7% | viability, T/C [15] 98.6% | viability, T/C [16] 105% | viability, T/C [17] 91.2% | viability, T/C [18] 63.4% | viability, T/C [19] 104% | viability, T/C [20] 112% | viability, T/C [21] 97.9% | viability, T/C [22] 96.3% | viability, T/C [23] 99.9% | viability, T/C [24] 60.3% | viability, T/C [25] 103% | viability, T/C [26] 95.2% | viability, T/C [27] 100% | viability, T/C [28] 103% | viability, T/C [29] 102% | viability, T/C [30] 67.2% | viability, T/C [31] 107% | viability, T/C [32] 104% | viability, T/C [33] 99.3% | viability, T/C [34] 106% | viability, T/C [35] 97.7% | viability, T/C [36] 63.6%
